This note sets out measurements from patent publication US20220073532A1, “INHIBITORS OF CGAS ACTIVITY AS THERAPEUTIC AGENTS” (BELLBROOK LABS, LLC, priority 2019, published 2022).

For data set [1], the target named is Mouse cGAS (Mus musculus, UniProt Q8C6L5). Briefly: cGAS enzymatic assay with mouse cGAS. It counts as biochemical. How it is done:
Biochemical and biophysical analysis: Potency and MOA studies, including Mn^2+ sensitivity, are performed using the cGAS enzymatic assay. Dose response experiments are used to determine IC50 values under basal conditions (5 mM MgCl2, 100 μM ATP/GTP), and with the addition of physiological levels of Mn (0.2 mM) using human and mouse cGAS. Ligand optimization is driven by potency with the human enzyme; potency with mouse cGAS informs selection of an appropriate disease model for efficacy studies. Competition with ATP and GTP is assessed by comparing basal IC50 values to those in the presence of saturating ATP or GTP, and subsequently confirmed by measuring velocity vs. substrate at varying ATP or GTP levels. Inhibitor residence times (1/koff) are used as a key parameter for prioritizing compounds and driving SAR, because a longer residence time often results from an allosteric mechanism, and can also correlate with improved cellular activity. The cGAS enzymatic assay is used with the jump dilution method to measure residence times (inhibitor dissociation rates), as described for kinases using the very similar ADP assay. Biophysical methods, including SPR and TSA, are used as orthologous methods for residence time measurements and kd estimates.

Data set [2] addresses T1, cGAS (Homo sapiens, UniProt Q8N884). The data set can be described thus: SPR / biophysical binding to cGAS. To be noted: enzymatic analysis and SPR, TSA. From the text: Following confirmation of hits at three concentrations and removal of compounds with visually evident reactivity or metabolic liabilities, non-stoichiometric inhibitors, aggregators, DNA intercalators and redox-active compounds were triaged (FIG. 2E) using established assays. […] Initial SAR based on more than 100 commercially available analogs provided additional confidence that the compounds were bonafide inhibitors, and informed potential scaffold hops and toleration for modifications.
A highly efficient platform for preclinical drug discovery (FIG. 3) was assembled, providing for development of cGAS inhibitors, which is improved by the addition of a powerful computational modeling method and in vivo PK studies (FIG. 3). […]
Biochemical and biophysical analysis: Potency and MOA studies, including Mn^2+ sensitivity, are performed using the cGAS enzymatic assay. […] Competition with ATP and GTP is assessed by comparing basal IC50 values to those in the presence of saturating ATP or GTP, and subsequently confirmed by measuring velocity vs. substrate at varying ATP or GTP levels. […]

Data set [3] is described as follows: Mouse microsomal stability (NADPH). Format: in vitro ADME. To be noted: liver microsomes, read-out: Mouse MS Stability (NADPH) t1/2. How it is done: ADME/PK: Compounds are tested in Caco-2 and MDR1-MDCK permeability assays to provide a measure of intestinal absorption, blood-brain-permeability and efflux by P-glycoprotein (P-gp), a frequent obstacle to effective CNS delivery. CNS drugs are associated with high passive membrane permeability (Papp>1×10^−6 cm/sec) and have low efflux ratios (Papp(B-A)/Papp(A-B)<2.5). Metabolic stability is tested using mouse and human liver microsomes incubated with NADPH for CYP-dependent metabolism and with UDPGA for glucuronidation. Compounds are tested for pharmacokinetics and brain penetration in mice using oral, intravenous and intraperitoneal administration.

Data set [4] deals with IRF3-driven Luc expression in THP-1 Dual cells. Briefly: THP-1 Dual IRF3-Luc reporter assay. It counts as cell-based, human. How it is done:
(§1) IFN induction in human monocyte cell lines: The human monocyte cell line THP-1 gives a robust cGAS/STING-dependent type I IFN response and has been used extensively for studies on the pathway. Typically, cells are stimulated by transfection with dsDNA and gene expression is assessed using an ELISA for IFNβ, a reporter gene assay, and/or cGAS/STING pathway markers such as STING phosphorylation. These assays were validated using the TBK1 inhibitor, BX-795, which acts downstream of cGAS/STING, as a probe; THP-1 Dual cells (Invivogen, San Diego) are used as the reporter cell line for routine compound testing (FIG. 5A). These assays were optimized, including equalizing responses with transfected DNA and cGAMP and comparing responses between undifferentiated cells and cells that have been differentiated to macrophages (which show little difference). […] Stimulation of THP-1 Dual cells with damage-associated molecular pattern molecules (DAMPs) that act through pattern recognition receptors other than cGAS provides another way to confirm the specificity of putative cGAS inhibitors.

Data set [5] concerns THP1 cGAS KO cells. The data set can be described thus: Specificity test in THP-Dual cGAS knockout cells. It counts as cell-based, human.
Excerpt: FIG. 5 includes (A) a schematic showing the THP1 dual-cell reporter system: secreted luciferase reports on IRF3-driven transcription; secreted alkaline phosphatase reports on NFκB-driven transcription, both downstream of cGAS/STING. THP-Dual cGAS knockout cells are used to test for non-specific effects; (B) a plot of the dose response for inhibition of Luc expression by Compound 15; (C) a plot of the dose response for inhibition of Luc expression by the TBK1 inhibitor, BX-795; and (D) a plot of the dose response for inhibition of SEAP expression by Compound 15.
as §1

Data set [6] deals with T1, cGAS. Briefly: cGAS enzymatic assay (FP/TR-FRET detection of cGAMP). Format: biochemical. The arrangement: The cGAS assay was used to screen 100,000 compounds with full-length human cGAS; 6xHis; made in house. Summed up: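 Homogeneous enzymatic assay with FP and TR-FRET read-outs, full-length enzyme at 30 nM. IC50 from dose-response under basal conditions (5 mM MgCl2, 100 μM ATP/GTP), also with 0.2 mM Mn added; values reported as letter bins from A (<100 nM) to E (>10 μM).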

Read-outs that look alike come from different tables or passages of the source. Where only a bound is given, the exact number is not on record here.

T1 sequence (Q8N884 whole entry): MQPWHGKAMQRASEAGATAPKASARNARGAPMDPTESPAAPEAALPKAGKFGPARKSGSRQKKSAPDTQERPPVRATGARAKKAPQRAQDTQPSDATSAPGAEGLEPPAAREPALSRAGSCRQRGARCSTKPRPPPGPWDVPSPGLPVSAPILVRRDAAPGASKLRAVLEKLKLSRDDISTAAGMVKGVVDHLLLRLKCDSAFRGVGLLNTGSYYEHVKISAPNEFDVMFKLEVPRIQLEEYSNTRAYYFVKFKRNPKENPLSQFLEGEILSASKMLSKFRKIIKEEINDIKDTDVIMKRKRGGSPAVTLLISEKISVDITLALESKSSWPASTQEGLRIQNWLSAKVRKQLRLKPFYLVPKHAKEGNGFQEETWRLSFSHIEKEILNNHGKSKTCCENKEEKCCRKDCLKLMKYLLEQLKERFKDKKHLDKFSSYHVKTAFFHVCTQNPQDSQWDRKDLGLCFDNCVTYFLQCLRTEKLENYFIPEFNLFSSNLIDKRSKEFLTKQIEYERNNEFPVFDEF
Mouse cGAS, sequence (Q8C6L5 whole entry): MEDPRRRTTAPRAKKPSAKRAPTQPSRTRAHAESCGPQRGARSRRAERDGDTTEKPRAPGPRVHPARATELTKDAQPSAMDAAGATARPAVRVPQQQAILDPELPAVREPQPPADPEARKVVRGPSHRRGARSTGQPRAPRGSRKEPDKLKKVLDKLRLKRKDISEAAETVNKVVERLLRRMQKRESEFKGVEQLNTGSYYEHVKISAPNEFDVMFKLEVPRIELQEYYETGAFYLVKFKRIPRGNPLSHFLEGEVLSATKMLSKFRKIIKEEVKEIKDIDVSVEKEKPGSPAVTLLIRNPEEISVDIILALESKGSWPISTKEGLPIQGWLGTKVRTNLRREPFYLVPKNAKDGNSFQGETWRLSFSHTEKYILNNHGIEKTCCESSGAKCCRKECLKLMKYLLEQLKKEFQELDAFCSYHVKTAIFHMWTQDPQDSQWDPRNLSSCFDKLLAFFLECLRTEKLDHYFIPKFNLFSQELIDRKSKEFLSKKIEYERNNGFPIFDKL

Consider `Cc1nc(N2CCC[C@H]2C(=O)O)c2oc3ccccc3c2n1` [Compound 15, (2-methylbenzofuro[3,2-d]pyrimidin-4-yl)-L-proline], for which the IC50 was > 150000 nM in data set [1]; 10800 ± 2400 nM in data set [6] (5 mM Mg^2+, 0.2 mM Mn^2+, read-out: IC50 (5 mM Mg^2+, 0.2 mM Mn^2+)); 1260 ± 570 nM in data set [6] (5 mM Mg^2+, read-out: IC50 (5 mM Mg^2+)); 1000 to 10000 nM in data set [6] (cGAS (30 nM), with Mn^2+, read-out: Inhibition cGAS + Mn^2+); 500 to 1000 nM in data set [6] (cGAS (30 nM), read-out: Inhibition cGAS). Further, the “binding stoichiometry to cGAS” value in data set [2] was “Stoichiometric binding (1:1)”. Besides, the half-life in data set [3] is > 2 h. The “inhibition of IRF3 (Luc)-driven transcription” value in data set [4] (THP-1 Dual cells) was 50-75%. In addition, the “inhibition in cGAMP-stimulated cells with cGAS present” value in data set [4] (cGAMP-stimulated THP-1 Dual cells) is recorded as “still caused inhibition, though to a lesser degree”. In data set [4] (human monocyte cell line THP-1), the cGAS-dependent cellular activity entry was “cGAS-dependent inhibition of type I IFN”. Besides, the “effect on IRF3-driven Luc expression in THP1 cGAS KO cells stimulated with LPS” value in data set [5] (LPS-stimulated, cGAS KO) is “no effect”. Besides, in data set [5] (cGAMP-stimulated, cGAS knockout), the “inhibition in cGAMP-stimulated cells lacking cGAS” value was “essentially no inhibition”. Besides, in data set [6] (competition with ATP), the MOA entry is “ATP Competitive”.
